A word on the Ki: it is a dissociation constant, usually derived from enzyme kinetics or from competition with a known ligand. As a reminder, the ED50 is the dose at which the effect has come halfway, by size or by number of responders.

For data set [1], the system named is Rattus norvegicus. In words: Reduction in total plasma cholesterol level in cholesterol-fed Sprague-Dawley rat at 0.2 mg/kg, ip after 24 hrs. Type of data set: functional. Details: scale not given: the % may be the effect or the level left. Conditions: route intraperitoneal.
The target in data set [2] is T1, Thyroid hormone receptor alpha (Homo sapiens, UniProt P10827).
T1 sequence (P10827 whole entry): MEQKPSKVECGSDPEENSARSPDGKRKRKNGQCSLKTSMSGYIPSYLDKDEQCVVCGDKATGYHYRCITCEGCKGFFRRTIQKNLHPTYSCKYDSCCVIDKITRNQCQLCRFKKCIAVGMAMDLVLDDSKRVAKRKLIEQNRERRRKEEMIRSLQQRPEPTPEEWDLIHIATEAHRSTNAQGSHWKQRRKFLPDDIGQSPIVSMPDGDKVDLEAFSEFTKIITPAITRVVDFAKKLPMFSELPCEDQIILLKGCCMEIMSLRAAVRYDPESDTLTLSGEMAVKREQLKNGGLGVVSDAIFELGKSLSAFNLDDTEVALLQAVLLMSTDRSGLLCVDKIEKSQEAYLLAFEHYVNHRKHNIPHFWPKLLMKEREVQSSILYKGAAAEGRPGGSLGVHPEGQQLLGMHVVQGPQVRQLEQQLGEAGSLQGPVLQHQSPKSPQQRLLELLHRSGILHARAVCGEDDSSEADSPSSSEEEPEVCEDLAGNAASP
Description: Displacement of [125I]3,5,3'-triiodo-L-thyronine from His-tagged human recombinant TRalpha1 by scintillation proximity assay

The target in data set [3] is T2, Thyroid hormone receptor beta (Homo sapiens, UniProt P10828).
T2 sequence (P10828 whole entry): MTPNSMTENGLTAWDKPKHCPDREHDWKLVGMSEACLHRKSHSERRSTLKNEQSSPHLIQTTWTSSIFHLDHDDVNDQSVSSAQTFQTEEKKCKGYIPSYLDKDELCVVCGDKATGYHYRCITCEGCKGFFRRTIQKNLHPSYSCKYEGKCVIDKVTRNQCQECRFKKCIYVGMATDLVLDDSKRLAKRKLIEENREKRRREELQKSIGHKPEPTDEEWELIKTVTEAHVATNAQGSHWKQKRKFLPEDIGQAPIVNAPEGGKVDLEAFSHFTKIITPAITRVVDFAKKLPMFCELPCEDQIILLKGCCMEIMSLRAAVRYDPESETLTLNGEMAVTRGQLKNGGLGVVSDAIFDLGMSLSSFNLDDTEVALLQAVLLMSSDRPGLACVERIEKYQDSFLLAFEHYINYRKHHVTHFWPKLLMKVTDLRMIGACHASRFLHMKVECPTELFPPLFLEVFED
Description: Displacement of [125I]3,5,3'-triiodo-L-thyronine His-tagged human recombinant TRbeta1 by scintillation proximity assay

In data set [4] the test system is Rattus norvegicus. In words: Reduction in total plasma cholesterol level in cholesterol-fed Sprague-Dawley rat at 0.5 mg/kg, po after 24 hrs. Type of data set: functional. Details: scale not given: the % may be the effect or the level left.
Data set [5] relates to Rattus norvegicus. In words: Reduction in total plasma cholesterol level in cholesterol-fed orally dosed Sprague-Dawley rat after 24 hrs. Particulars: po. Type of data set: functional.
A short description of data set [6]: Metabolic stability in human liver S9 fraction assessed as activation rate at 100 uM after 1 hr. Type of data set: ADME, subcellular. Conditions: s9, 1 h.
A short description of data set [7]: Metabolic stability in human S9 liver fraction assessed as monoacid levels at 100 uM after 1 hr. Conditions: s9, 1 h. Type of data set: ADME, subcellular.
Data set [8] is described as follows: Metabolic stability in human S9 liver fraction assessed as prodrug remaining at 100 uM after 1 hr. Type of data set: ADME, subcellular. Particulars: s9, 1 h.
Data set [9] relates to Rattus norvegicus. In words: Reduction in total plasma cholesterol level in cholesterol-fed orally dosed Sprague-Dawley rat after 24 hrs relative to control. Type of data set: functional. Details: scale not given: the % may be the effect or the level left.
Data set [10] concerns Rattus norvegicus. In words: Agonist activity at thyroid hormone receptor in Sprague-Dawley rat assessed as liver mGPDH activity at 1 mg/kg administered through osmotic pump infusion per ug protein. Type of data set: functional.
The subject of data set [11] is Rattus norvegicus. In words: Agonist activity at thyroid hormone receptor in Sprague-Dawley rat assessed as heart mGPDH activity at 1 mg/kg administered through osmotic pump infusion per ug protein. Type of data set: functional.

The compound `CCC(C)c1cc(Cc2c(C)cc(OCP(=O)(O)O)cc2C)ccc1O` (stereo not drawn) returned an Activity with Rattus norvegicus [1] of 20.1%. The compound also registered a Ki in data set [2] of 30.5 nM.

`CC(C)c1cc(Oc2c(Br)cc(OCP(=O)(O)O)cc2Br)ccc1O` showed an Activity in the data set on Rattus norvegicus [1] of 42.6%.

`CC(C)c1cc(Oc2c(I)cc(OCP(=O)(O)O)cc2I)ccc1O` came in with an Activity with Rattus norvegicus [1] of 44.7%.

For the compound `Cc1cc(OCP(=O)(O)O)cc(C)c1Oc1ccc(O)c(C(C)C)c1`, the Ki in data set [2] came to 183 nM; in [3] it was 25.4 nM.

`CCOC(=O)OCOP(=O)(COc1cc(C)c(Cc2ccc(O)c(C(C)C)c2)c(C)c1)OCOC(=O)OCC`: the Activity with Rattus norvegicus [4] was determined as 24%.

In the case of `CCOC(=O)CNP(=O)(COc1cc(C)c(Cc2ccc(O)c(C(C)C)c2)c(C)c1)NCC(=O)OCC`, the values for the Activity with Rattus norvegicus [4] and in the data set with Rattus norvegicus [9] were 42% and 48%, respectively. This compound showed an ED50 with Rattus norvegicus [5] of 0.1 mg/kg. Besides, the Stability in [6] was determined as 73 pmol/min/mg; in data set [7], 6%; in data set [8], 70%.

The compound `CCOC(=O)[C@H](C)NP(=O)(COc1cc(C)c(Cc2ccc(O)c(C(C)C)c2)c(C)c1)N[C@@H](C)C(=O)OCC` displayed an Activity in the data set with Rattus norvegicus [4] of 42%.

Take `CCOC(=O)C(C)(C)NP(=O)(COc1cc(C)c(Cc2ccc(O)c(C(C)C)c2)c(C)c1)NC(C)(C)C(=O)OCC`: the Activity in the data set on Rattus norvegicus [4] was found to be 23%.

For `O=P(O)(O)Cc1cc(I)c(Oc2ccc(O)c(I)c2)c(I)c1`, the Activity in the data set on Rattus norvegicus [10] amounted to 5.38 U/min; in the data set on Rattus norvegicus [11] it was 1.74 U/min.

Compound `CC(=O)SCCOP(=O)(COc1cc(C)c(Cc2ccc(O)c(C(C)C)c2)c(C)c1)OCCSC(C)=O` returned an Activity in the data set on Rattus norvegicus [4] of 20%.

`Cc1cc(OCP(=O)(OCOC(=O)OC(C)C)OCOC(=O)OC(C)C)cc(C)c1Cc1ccc(O)c(C(C)C)c1`: the Activity in the data set on Rattus norvegicus [4] was 24%.

With `Cc1cc(NC(=O)C(=O)O)cc(C)c1Oc1ccc(O)c(C(C)C)c1`, the results for the Ki in data set [2] and in data set [3] were 0.51 nM and 0.47 nM, respectively.

Regarding `Cc1cc(NCP(=O)(O)O)cc(C)c1Cc1ccc(O)c(C(C)C)c1`, the Activity in the data set on Rattus norvegicus [1] is 32.3%. Besides, the inhibitory constant (Ki) worked out at 28.4 nM in [2] and 9.1 nM in [3].

`CCc1cc(Cc2c(C)cc(OCP(=O)(O)O)cc2C)ccc1O` registered an Activity in the data set on Rattus norvegicus [1] of 7.5%.

`CC(C)c1cc(Oc2c(Br)cc(CCP(=O)(O)O)cc2Br)ccc1O`: in the data set with Rattus norvegicus [1], the Activity is given as 34.5%. Further, the Ki in data set [2] stood at 42.1 nM; in data set [3] it was 2.5 nM.

In the data set with Rattus norvegicus [4], `CCOC(=O)[C@H](Cc1ccccc1)NP(=O)(COc1cc(C)c(Cc2ccc(O)c(C(C)C)c2)c(C)c1)N[C@@H](Cc1ccccc1)C(=O)OCC` yielded an Activity of 0%.

In turn, `CCOC(=O)[C@@H](NP(=O)(COc1cc(C)c(Cc2ccc(O)c(C(C)C)c2)c(C)c1)N[C@H](C(=O)OCC)C(C)C)C(C)C` displayed an Activity in the data set on Rattus norvegicus [4] of 13%.

With `CC(C)c1cc(Oc2c(Br)cc(NCP(=O)(O)O)cc2Br)ccc1O`, the Activity in the data set with Rattus norvegicus [1] worked out at 47.7%.

`CC(C)c1cc(Oc2c(I)cc(CP(=O)(O)O)cc2I)ccc1O` displayed an Activity in the data set with Rattus norvegicus [1] of 39.4%.

Take `Cc1cc(OCP(=O)(OCOC(=O)C(C)(C)C)OCOC(=O)C(C)(C)C)cc(C)c1Cc1ccc(O)c(C(C)C)c1`: the Activity is recorded as 33% in the data set with Rattus norvegicus [4] and 46% in the data set with Rattus norvegicus [9]. In the data set on Rattus norvegicus [5], this compound had an ED50 of 0.7 mg/kg. Besides, the values for the Stability in data set [6], in data set [7] and in data set [8] were 134 pmol/min/mg, 79% and 11%, respectively.

For the compound `Cc1cc(OC[P@@]2(=O)OCC[C@@H](c3ccc(Cl)cc3)O2)cc(C)c1Cc1ccc(O)c(C(C)C)c1`, in the data set with Rattus norvegicus [4], the Activity is recorded as 28%.

As to `CC(C)c1cc(Oc2c(Cl)cc(NCP(=O)(O)O)cc2Cl)ccc1O`, the affinity in [3] corresponds to a Ki of 30.5 nM.

Take `CC(C)c1cc(Oc2c(Br)cc(CP(=O)(O)O)cc2Br)ccc1O`: the Ki in [2] turned out to be 235 nM; in data set [3] it was 15.5 nM.

In data set [2], `COc1cc(OCP(=O)(O)O)cc(OC)c1Cc1ccc(O)c(C(C)C)c1` had a Ki of 3300 nM.

On to `Cc1cc(OC[P@@]2(=O)OCC[C@@H](c3cccnc3)O2)cc(C)c1Cc1ccc(O)c(C(C)C)c1` (relative stereo), for which, in the data set with Rattus norvegicus [4], the Activity was determined as 39%.

`Cc1cc(OC[P@@]2(=O)OCC[C@@H](c3cccc(F)c3)O2)cc(C)c1Cc1ccc(O)c(C(C)C)c1` (relative stereo) had an Activity in the data set with Rattus norvegicus [4] of 46%.

As to `Cc1cc(OC[P@@]2(=O)OCC[C@@H](c3cc(Cl)cc(Cl)c3)O2)cc(C)c1Cc1ccc(O)c(C(C)C)c1` (relative stereo), the Activity with Rattus norvegicus [4] is given as 29%.

In the case of `Cc1cc(OC[P@@]2(=O)OCC[C@@H](c3ccncc3)O2)cc(C)c1Cc1ccc(O)c(C(C)C)c1` (relative stereo), the Activity in the data set with Rattus norvegicus [4] came out at 29%.

In the case of `Cc1cc(OC[P@@]2(=O)OCC[C@@H](c3cccc(Br)c3)O2)cc(C)c1Cc1ccc(O)c(C(C)C)c1` (relative stereo), the Activity in the data set on Rattus norvegicus [4] is 0%.

Turning to `N[C@@H](Cc1cc(I)c(Oc2ccc(O)c(I)c2)c(I)c1)C(=O)O` [LIOTHYRONINE], the results for the Activity in the data set with Rattus norvegicus [10] and in the data set with Rattus norvegicus [11] were 7.52 U/min and 4.18 U/min, respectively.

Consider `Cc1cc(OCP(=O)(O)O)cc(C)c1Cc1ccc(O)c(C(C)C)c1` [MB07344], for which the Activity came out at 7.37 U/min in the data set with Rattus norvegicus [10], 1.66 U/min in the data set on Rattus norvegicus [11] and 37.2% with Rattus norvegicus [1]. In data set [3], the Ki came out at 2.95 nM.

Regarding `Cc1cc(OCC(=O)O)cc(C)c1Cc1ccc(O)c(C(C)C)c1` [SOBETIROME], the Activity in the data set with Rattus norvegicus [10] was determined as 7.88 U/min; with Rattus norvegicus [11], 4.08 U/min.

`O=C(O)Cc1cc(I)c(Oc2ccc(O)c(I)c2)c(I)c1` [TIRATRICOL]: the Activity in the data set with Rattus norvegicus [10] stood at 7.1 U/min; in the data set on Rattus norvegicus [11], 3.68 U/min.

The record behind these values is ChEMBL document CHEMBL1152303, “Synthesis and biological evaluation of a series of liver-selective phosphonic acid thyroid hormone receptor agonists and their prodrugs” (J Med Chem, 2008).
